These results are taken from US5326780A, “Imidazole derivatives having anti-HIV activity” (priority 1992, dated 1994).

Format in all cases: cell-based
Series [1] has as its system HIV (HTLV-IIIB strain). The series is described as follows: Infection inhibitory test: anti-HIV activity, MT-4 cells infected with HIV, MTT. To be noted: Human immunodeficiency virus 1, IIIB, MT4, 120 h. On the procedure:
Anti-HIV activity and cytotoxicity are tested in the following manners.
(§1) (1) A human T cell MOLT-4 clone 8, a strain continuously infected with HIV (HTLV-IIIB strain), was incubated in RPMI-1640 medium containing 10% bovine fetus serum and the supernatant was isolated by filtration. After the determination of virus titer, the supernatant was stored at -80° C. A compound to be tested was diluted with the same medium to a given concentration and poured into 96-well microtiter plates by 100 μl/well. To the well is added 50 μl (2.5×10^4 cells) MT-4 cell suspensions, followed by the addition of 50 μl [600 pfu (plaque forming unit)] HIV-containing supernatant previously diluted with the same medium.
(§2) (2) After 5-day-incubation at 37° C. in a carbon dioxide incubator, 30 μl MTT {3-(4,5-diemthylthiazol-2-yl)-2,5-diphenyltetrazolium bromide), 5 mg/ml in PBS} was added to each well, and the incubation was continued for another 1 hour, during which surviving cells reduce MTT to precipitate folmazan.
(§3) The resultant folmazan was eluted by replacing 150 μl supernatant of a culture in each well by 150 μl solution comprising 10% triton X - 100 and isopropanol containing 0.4 v/v % HCl and shaking by means of a plate mixer. The resultant folmazan was assayed at 0D 540 nm, and the result was evaluated by comparison with that obtained in a control test.
IC50 is defined as a concentration of the compound (I) that gives a 50% inhibition against vital cytotoxicity.

A short description of series [2]: Cytotoxicity, MT-4 cells without virus, MTT. The settings on record: human. On the procedure:
as §1, §2, §3
(§4) Cytotoxicity of a compound (I) was evaluated in a similar manner as described in 1 above except that 50 μl of the same medium is added to each well in place of the HIV-containing supernatant (viral solurtion).
(§5) CC50 is defiend as a concentration of the compound (I) that gives 50% cytotoxicity.

Series [3] concerns MT-4 cell. The series is described as follows: Cytotoxicity, MT-4 cells without virus, MTT. The settings on record: 50% cytotoxicity; MT-4 cells without virus, 5-day incubation, MTT. On the procedure:
as §1, §2, §3, §4, §5

Setting [4] is: 50% inhibition of viral cytotoxicity, MT-4 cells, 5-day incubation at 37 °C, MTT, read-out: IC50.

≈ marks a conversion by molar mass, not a printed value. Read-outs that look alike come from different tables or passages of the source.

Turning to `CCOCn1c(C)nc(C(C)C)c1Sc1ccccc1` [Compound I-18], in series [1] (setting [4]), the IC50 – broadly, the concentration that inhibits the measured activity by half – was 0.016 µg/mL (≈ 0.0551 µM). In addition, the CC50 (in general, the concentration that lowers cell viability or growth by half) at 120 h in series [2] (mt-4 cells) lay within 25 to 50 µg/mL (≈ 86.1 to 172 µM).
For the compound `Cc1nc(C(C)C)c(Sc2ccccc2)n1COCc1ccccc1` [Compound I-17], in series [1] (setting [4]), the 50% inhibitory concentration (IC50) worked out at 0.016 µg/mL (≈ 0.0454 µM).
As to `c1ccc(COCn2cncc2Sc2ccccc2)cc1` [Compound I-5, 1-benzyloxymethyl-5-phenylthioimidazoe nitrate], in series [1] (setting [4]), the IC50 was 0.13 to 0.25 µg/mL. In series [2] (mt-4 cells), this compound returned a CC50 at 120 h of 12.5 to 25 µg/mL.
Regarding `Cc1nc(Cc2cc(F)cc(F)c2)c(C(C)C)n1COCc1ccccc1` [Compound I-92], in series [1] (setting [4]), the half-inhibitory concentration (IC50) is 0.25 µg/mL (≈ 0.675 µM). In series [2] (mt-4 cells), this compound came in with a CC50 at 120 h of 6.25 to 12.5 µg/mL (≈ 16.9 to 33.7 µM).
Turning to `Cc1cc(C)cc(Cc2c(C(C)C)nc(C)n2COCc2ccccc2)c1` [Compound I-50], in series [1] (setting [4]), the IC50 was found to be 0.016 µg/mL (≈ 0.0441 µM). For the same compound, the CC50 at 120 h in series [2] (mt-4 cells) is 6.25 to 12.5 µg/mL (≈ 17.2 to 34.5 µM).
In the same order, the values of `Cc1nc(Cc2cc(Cl)cc(Cl)c2)c(C(C)C)n1COCc1ccccc1` [Compound I-91] are 0.5 to 1 µg/mL (≈ 1.24 to 2.48 µM) and 10 to 100 µg/mL (≈ 24.8 to 248 µM).
As for `CCCc1nc(Br)n(COCc2ccccc2)c1Sc1ccccc1` [Compound I-13], the 50% cytotoxic concentration (CC50) at 120 h in series [2] (mt-4 cells) lay within 12.5 to 25 µg/mL (≈ 29.9 to 59.9 µM).
Take `CCc1nc(C)n(COCc2ccccc2)c1Sc1cc(C)cc(C)c1` [Compound I-14]: the IC50 in series [1] (setting [4]) lay in the range of 0.016 to 0.032 µg/mL (≈ 0.0437 to 0.0873 µM). This compound also had a CC50 at 120 h in series [2] (mt-4 cells) of 10 to 20 µg/mL (≈ 27.3 to 54.6 µM).
Turning to `CCOCn1c(C)nc(CC)c1Sc1cc(C)cc(C)c1` [Compound I-15], the IC50 in series [1] (setting [4]) was 0.063 to 0.12 µg/mL (≈ 0.207 to 0.394 µM). Further, in series [2] (mt-4 cells), the CC50 at 120 h was in the range of 10 to 20 µg/mL (≈ 32.8 to 65.7 µM).
In the case of `CCOCn1c(C)nc(Cc2cc(Cl)cc(Cl)c2)c1C(C)C` [Compound I-90], in series [1] (setting [4]), the IC50 is 0.5 to 1 µg/mL (≈ 1.47 to 2.93 µM). The compound also yielded a CC50 at 120 h in series [2] (mt-4 cells) of 1 to 10 µg/mL (≈ 2.93 to 29.3 µM).
As to `CCc1nc(C)n(COCc2ccccc2)c1Sc1ccccc1` [Compound I-1, 1-benzyloxymethyl-4-ethyl-2-methyl-5-phenylthioimidazole], the IC50 in series [1] (setting [4]) lay in the range of 0.03 to 0.06 µg/mL (≈ 0.0886 to 0.177 µM).
Take `Cc1nc(C(C)C)c(Cc2cc(F)cc(F)c2)n1COCc1ccccc1` [Compound I-69]: in series [1] (setting [4]), the IC50 was determined as 0.003 µg/mL (≈ 0.0081 µM). Also, the CC50 at 120 h in series [2] (mt-4 cells) lay in the range of 6.25 to 12.5 µg/mL (≈ 16.9 to 33.7 µM).
With `CC(C)=CCN1Cc2cc(Cl)cc3[nH]c(=S)n(c23)C[C@@H]1C` [TIBO (R-82913), reference compound], in series [1] (setting [4]), the IC50 fell in the range of 0.13 to 0.25 µg/mL (≈ 0.404 to 0.777 µM). Besides, in series [2] (50% cytotoxicity, MT-4 cells without virus, 5-day incubation, MTT, read-out: CC50), the CC50 at 120 h lay in the range of 12.5 to 25 µg/mL (≈ 38.8 to 77.7 µM).
Take `CCOCn1c(C)nc(C(C)C)c1Cc1cccnc1` [Compound I-58]: the IC50 in series [1] (setting [4]) turned out to be 0.5 µg/mL (≈ 1.83 µM). Also, the cytotoxic concentration (CC50) at 120 h in series [2] (mt-4 cells) was above 100 µg/mL.
As to `CCc1ncn(COCc2ccccc2)c1Sc1ccccc1` [Compound I-4, 1-benzyloxymethyl-4-ethyl-5-phenylthioimidazole], the IC50 in series [1] (setting [4]) was in the range of 0.13 to 0.25 µg/mL (≈ 0.401 to 0.771 µM). This compound displayed a CC50 at 120 h in series [2] (mt-4 cells) of 12.5 to 25 µg/mL (≈ 38.5 to 77.1 µM).
Take `Cc1cc(C)cc(Sc2c(C(C)C)nc(C)n2COCc2ccccc2)c1` [Compound I-16]: in series [1] (setting [4]), the IC50 was in the range of 0.016 to 0.031 µg/mL (≈ 0.042 to 0.0815 µM).
With `CCc1nc(C)n(COCCO)c1Sc1cc(C)cc(C)c1` [Compound I-29, 5-(3,5-Dimethylphenylthio)-4-ethyl-1-[(2-hydroxyethoxy)-methyl]-2-methylimidazole], the IC50 in series [1] (setting [4]) lay in the range of 0.13 to 0.25 µg/mL (≈ 0.406 to 0.78 µM). Besides, in series [2] (mt-4 cells), the half-maximal cytotoxic concentration (CC50) at 120 h lay within 25 to 50 µg/mL (≈ 78 to 156 µM).
As for `CCOCn1c(C)nc(C(C)C)c1Cc1cc(Cl)cc(Cl)c1` [Compound I-67], in series [1] (setting [4]), the IC50 was found to be 0.005 µg/mL (≈ 0.0147 µM). The compound further showed a CC50 at 120 h in series [2] (mt-4 cells) of 6.25 to 12.5 µg/mL (≈ 18.3 to 36.6 µM).
Compound `Cc1cn([C@H]2C[C@H](N=[N+]=[N-])[C@@H](CO)O2)c(=O)[nH]c1=O` [AZT, azidodeoxythymidine, reference compound] showed a 50% inhibitory concentration (IC50) in series [1] of 0.005 to 0.01 µg/mL (≈ 0.0187 to 0.0374 µM). The same compound came in with a CC50 in series [3] of 25 µg/mL (≈ 93.5 µM).
In the case of `CCOCn1c(C)nc(Cc2cc(F)cc(F)c2)c1C(C)C` [Compound I-93], the IC50 in series [1] (setting [4]) stood at 0.06 µg/mL (≈ 0.195 µM). Besides, the 50% cytotoxic concentration (CC50) at 120 h in series [2] (mt-4 cells) fell in the range of 12.5 to 25 µg/mL (≈ 40.5 to 81.1 µM).
In turn, `CCCc1ncn(COCc2ccccc2)c1Sc1ccccc1` [Compound I-9] came in with a CC50 at 120 h in series [2] (mt-4 cells) of 12.5 to 25 µg/mL (≈ 36.9 to 73.9 µM).
For the compound `Cc1nc(C(C)C)c(Cc2ccccc2)n1COCc1ccccc1` [Compound I-42, 5-Benzyl-1-benzyloxymethyl-4-isopropyl-2-methylimidazole], the IC50 in series [1] (setting [4]) was determined as 0.016 µg/mL (≈ 0.0478 µM). Also, in series [2] (mt-4 cells), the CC50 at 120 h fell in the range of 3.1 to 6.25 µg/mL (≈ 9.27 to 18.7 µM).
In the same order, the values of `CCc1nc(Br)n(COCc2ccccc2)c1Sc1ccccc1` [Compound I-12] are 0.06 to 0.13 µg/mL (≈ 0.149 to 0.322 µM) and 12.5 to 25 µg/mL (≈ 31 to 62 µM).
